Laboratory results taken from PubChem BioAssay AID2060885 (Molecular Pharmacology Branch, DTP, NCI, 2025).

Test system: NCI-H23 complex spheroids with HUVEC/MSC, viability
Assay: Anticancer human tumor NCI-H23 cell line growth inhibition [RAS];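 on viability, T/C: 100% = DMSO vehicle control viability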
Settings: for viability, T/C: stronger effect = lower value
Description: RAS pathway inhibitors in Combinations in Complex Spheroids
A high-throughput screen of multi-cell type tumor spheroids was designed to identify active combinations of RAS pathway inhibitors and targeted small molecules. Complex spheroids include a stromal component modeled by human endothelial cells (HUVEC) and fibroblasts modeled by human mesenchymal stem cells (MSCs). The concentration ranges selected for each drug and investigational agent were based upon clinically achievable concentrations if the clinical Cmax of the agent was known.
Compounds. The drugs and investigational agents: abemaciclib (NSC768073), cobimetinib (NSC768068), divarasib (GDC6063, NSC841802), docetaxel (NSC628503), GDC-1971 (RLY-1971, NSC841576), gemcitabine (NSC613327), inavolisib (NSC800729), ipatasertib (NSC767898), KB-0742 (NSC834161), MRTX-1133 (NSC836407), osimertinib (NSC779217), RMC-4630 (NSC839698), RMC-6236 (NSC851965), RMC-6291 (NSC852671), Ro-3306 (NSC812927), sapanisertib (NSC764658), SN-38 (NSC673596), staurosporine (NSC755774), SY5609 (NSC837396), and tovorafenib (DAY101, NSC766906), were obtained from the National Cancer Institute (NCI) Developmental Therapeutics Program Chemical Repository. The FDA-approved anticancer drug set is available from the NCI Developmental Therapeutics Program. […] The stock solutions were prepared in dimethyl sulfoxide (DMSO, Sigma-Aldrich, St. Louis, MO, cat. D2650) at 800-fold the tested concentration and stored at -70 degrees C prior to their use. All drugs and investigational agents were tested over a range starting from a high concentration at or near the clinical Cmax and decreasing in half-log increments. If the clinical Cmax for an agent had not been determined, the highest concentration tested was 10 microM.
Cell Culture. All cells were maintained in an incubator at 37 degrees C and 5% CO2 with 95% humidity. The PDC lines were cultured according to standard operating procedures established by the NCI PDMR. All PDCs were thawed and cultured in Matrigel-coated flasks prepared with a working solution of 1X Ham's F-12 nutrient mix, without supplementation (Invitrogen, Waltham, MA, cat. 11765054), 100 U/mL penicillin-streptomycin (Invitrogen, cat. 15140122), and 2.5% Matrigel (Corning Inc., Corning, NY, cat. 354248) for the first three passages. The 362531-283-R-J2-PDC and 782815-120-R-J1-PDC lines were cultured in 6C/Colon 1B media, which includes advanced DMEM/F-12 (Thermo Fisher Scientific, cat. 12634028), 10 mM HEPES (Thermo Fisher Scientific, cat. 15630080), 1X GlutaMAX supplement (Thermo Fisher Scientific, cat. 35050061), 0.1 mg/mL primocin (InvivoGen, San Diego, CA, cat. ant-pm-2), 10% defined fetal bovine serum, heat inactivated (HyClone Laboratories Inc., Logan, UT, cat. SH30070.03HI), 50% L-WRN conditioned media (ATCC, cat. CRL-3276), 1.25 mM N-Acetyl-L-cysteine (Sigma-Aldrich, cat. A9165), 10 mM nicotinamide (Sigma-Aldrich, cat. N0636), 1X B-27 supplement (Thermo Fisher Scientific, cat. 17504044), 1X N-2 supplement (Thermo Fisher Scientific, cat. 17502048), 50 ng/mL human EGF (Thermo Fisher Scientific, cat. PHG0311), and 10 microM Y-27632 dihydrochloride (Tocris Bioscience, cat. 1254). The K12877-001-R-J1-PDC line was cultured in 6I media, which includes all 6C/Colon 1B media plus 10 ng/mL human FGF-10 (PeproTech, cat. 100-26), 1 ng/mL human FGF-2 (PeproTech, cat. 100-18B), 1 µM prostaglandin E2 (Tocris Bioscience, cat. 2296), […] hydrocortisone (Sigma-Aldrich, cat. H4001), and […] bovine insulin (Sigma-Aldrich, cat. I6634). The K86415-001-R-J1-PDC line was cultured in 6D media, which includes all 6C/Colon 1B media components minus the L-WRN conditioned media. The 485176-168-R4-J1-PDC was cultured in PANC media, which includes all 6C/Colon 1B media plus 100 ng/mL human FGF-10 (PeproTech, cat. 100-26), 500 nM SB-431542 (Selleckchem, cat. S1067), and 10 nM gastrin (Tocris Bioscience, cat. 3006). […]

[1] = curve of first compound, second compound 0.0316 µM
[2] = curve of first compound, second compound 0.1 µM
[3] = curve of first compound, second compound 0.316 µM
[4] = curve of first compound, second compound 1 µM
[5] = curve of first compound, second compound 3.16 µM
[6] = curve of first compound, second compound 10 µM
[7] = second compound 0.0316 µM, first compound 0.00316 µM
[8] = second compound 0.0316 µM, first compound 0.01 µM
[9] = second compound 0.0316 µM, first compound 0.0316 µM
[10] = second compound 0.0316 µM, first compound 0.1 µM
[11] = second compound 0.0316 µM, first compound 0.316 µM
[12] = second compound 0.0316 µM, first compound 1 µM
[13] = second compound 0.1 µM, first compound 0.00316 µM
[14] = second compound 0.1 µM, first compound 0.01 µM
[15] = second compound 0.1 µM, first compound 0.0316 µM
[16] = second compound 0.1 µM, first compound 0.1 µM
[17] = second compound 0.1 µM, first compound 0.316 µM
[18] = second compound 0.1 µM, first compound 1 µM
[19] = second compound 0.316 µM, first compound 0.00316 µM
[20] = second compound 0.316 µM, first compound 0.01 µM
[21] = second compound 0.316 µM, first compound 0.0316 µM
[22] = second compound 0.316 µM, first compound 0.1 µM
[23] = second compound 0.316 µM, first compound 0.316 µM
[24] = second compound 0.316 µM, first compound 1 µM
[25] = second compound 1 µM, first compound 0.00316 µM
[26] = second compound 1 µM, first compound 0.01 µM
[27] = second compound 1 µM, first compound 0.0316 µM
[28] = second compound 1 µM, first compound 0.1 µM
[29] = second compound 1 µM, first compound 0.316 µM
[30] = second compound 1 µM, first compound 1 µM
[31] = second compound 3.16 µM, first compound 0.00316 µM
[32] = second compound 3.16 µM, first compound 0.01 µM
[33] = second compound 3.16 µM, first compound 0.0316 µM
[34] = second compound 3.16 µM, first compound 0.1 µM
[35] = second compound 3.16 µM, first compound 0.316 µM
[36] = second compound 3.16 µM, first compound 1 µM
[37] = second compound 10 µM, first compound 0.00316 µM
[38] = second compound 10 µM, first compound 0.01 µM
[39] = second compound 10 µM, first compound 0.0316 µM
[40] = second compound 10 µM, first compound 0.1 µM
[41] = second compound 10 µM, first compound 0.316 µM
[42] = second compound 10 µM, first compound 1 µM

## CC(=O)OC12COC1CC(O)C1(C)C(=O)C(O)C3=C(C)C(OC(=O)C(O)C(NC(=O)OC(C)(C)C)c4ccccc4)CC(O)(C(OC(=O)c4ccccc4)C21)C3(C)C (configuration not stated)
Compound 0.0316 µM
  viability, T/C: 31.2% [middle of 4 runs]
Compound 0.1 µM
  viability, T/C: 32.3% [middle of 4 runs]
Compound 0.316 µM
  viability, T/C: 28.2% [middle of 4 runs]
Compound 1 µM
  viability, T/C: 34.6% [middle of 4 runs]
Compound 3.16 µM
  viability, T/C: 50.4% [middle of 4 runs]
Compound 10 µM
  viability, T/C: 63.5% [middle of 4 runs]
Curve of compound
  IC50: < 31.6 nM

## NC1c2ccccc2OC12CCN(c1cnc3c(N4CCCc5ncccc54)n[nH]c3n1)CC2 (configuration not stated)
Compound 0.0316 µM
  viability, T/C: 72.5% [middle of 4 runs]
Compound 0.1 µM
  viability, T/C: 66.6% [middle of 4 runs]
Compound 0.316 µM
  viability, T/C: 44.9% [middle of 4 runs]
Compound 1 µM
  viability, T/C: 42.2% [middle of 4 runs]
Compound 3.16 µM
  viability, T/C: 41.3% [middle of 4 runs]
Compound 10 µM
  viability, T/C: 44.1% [middle of 4 runs]

## C=CC(=O)Nc1cc(Nc2nccc(-c3cn(C)c4ccccc34)n2)c(OC)cc1N(C)CCN(C)C + C#Cc1c(F)ccc2cc(O)cc(-c3ncc4c(N5CC6CCC(C5)N6)nc(OCC56CCCN5CC(F)C6)nc4c3F)c12
[1]
  IC50: > 1000 nM
[2]
  IC50: > 1000 nM
[3]
  IC50: > 1000 nM
[4]
  IC50: > 1000 nM
[5]
  IC50: 81.8 nM
[6]
  IC50: < 3.16 nM
[7]
  viability, T/C: 101%
[8]
  viability, T/C: 128%
[9]
  viability, T/C: 101%
[10]
  viability, T/C: 99.2%
[11]
  viability, T/C: 98.4%
[12]
  viability, T/C: 102%
[13]
  viability, T/C: 109%
[14]
  viability, T/C: 113%
[15]
  viability, T/C: 95.7%
[16]
  viability, T/C: 93.6%
[17]
  viability, T/C: 101%
[18]
  viability, T/C: 112%
[19]
  viability, T/C: 104%
[20]
  viability, T/C: 122%
[21]
  viability, T/C: 95.5%
[22]
  viability, T/C: 90%
[23]
  viability, T/C: 89.8%
[24]
  viability, T/C: 89.3%
[25]
  viability, T/C: 107%
[26]
  viability, T/C: 109%
[27]
  viability, T/C: 93%
[28]
  viability, T/C: 86.6%
[29]
  viability, T/C: 77.1%
[30]
  viability, T/C: 85.3%
[31]
  viability, T/C: 64.5%
[32]
  viability, T/C: 64.1%
[33]
  viability, T/C: 60.2%
[34]
  viability, T/C: 47.3%
[35]
  viability, T/C: 43.5%
[36]
  viability, T/C: 52.8%
[37]
  viability, T/C: 41.9%
[38]
  viability, T/C: 45.8%
[39]
  viability, T/C: 36.1%
[40]
  viability, T/C: 34%
[41]
  viability, T/C: 30%
[42]
  viability, T/C: 30.1%

## O=C(c1ccc(F)c(F)c1Nc1ccc(I)cc1F)N1CC(O)([C@@H]2CCCCN2)C1 + C#Cc1c(F)ccc2cc(O)cc(-c3ncc4c(N5CC6CCC(C5)N6)nc(OCC56CCCN5CC(F)C6)nc4c3F)c12
[1]
  IC50: 82.6 nM
[2]
  IC50: 77.3 nM
[3]
  IC50: 73.2 nM
[4]
  IC50: 68.3 nM
[5]
  IC50: 15.4 nM
[6]
  IC50: < 3.16 nM
[7]
  viability, T/C: 108%
[8]
  viability, T/C: 105%
[9]
  viability, T/C: 70.8%
[10]
  viability, T/C: 44.1%
[11]
  viability, T/C: 35.9%
[12]
  viability, T/C: 19.1%
[13]
  viability, T/C: 103%
[14]
  viability, T/C: 103%
[15]
  viability, T/C: 65.1%
[16]
  viability, T/C: 47.1%
[17]
  viability, T/C: 30.9%
[18]
  viability, T/C: 21.6%
[19]
  viability, T/C: 99.8%
[20]
  viability, T/C: 112%
[21]
  viability, T/C: 72.6%
[22]
  viability, T/C: 42.5%
[23]
  viability, T/C: 31.1%
[24]
  viability, T/C: 20.4%
[25]
  viability, T/C: 91.2%
[26]
  viability, T/C: 95.8%
[27]
  viability, T/C: 60.4%
[28]
  viability, T/C: 43.8%
[29]
  viability, T/C: 34.4%
[30]
  viability, T/C: 21.1%
[31]
  viability, T/C: 56.3%
[32]
  viability, T/C: 58.7%
[33]
  viability, T/C: 42.4%
[34]
  viability, T/C: 40%
[35]
  viability, T/C: 30.3%
[36]
  viability, T/C: 17%
[37]
  viability, T/C: 36.5%
[38]
  viability, T/C: 38.3%
[39]
  viability, T/C: 31.6%
[40]
  viability, T/C: 31.9%
[41]
  viability, T/C: 22.1%
[42]
  viability, T/C: 12.3%
